Patent publication US10081641B2, “Pesticidally active heterocyclic derivatives with sulphur containing substituents” (Syngenta Participations AG, priority 2014, dated 2018)
Where two headings read alike, the source gives them in different places.

How the values were obtained:
Assay type in all cases: in vivo
[1] = tested on: Plutella xylostella (Diamond Back Moth); experiment: Example B3: Plutella xylostella, artificial diet; conditions: 120 h, read-out: effect in at least one of the two categories (mortality or growth inhibition)
Description: Example B3: Plutella xylostella (Diamond Back Moth)
(§1) 24-well microtiter plates with artificial diet were treated with aqueous test solutions prepared from 10′000 ppm DMSO stock solutions by pipetting. After drying, the plates were infested with L2 larvae (10 to 15 per well). The samples were assessed for mortality and growth inhibition in comparison to untreated samples 5 days after infestation.

[2] = tested on: Spodoptera littoralis (Egyptian Cotton Leaf Worm); experiment: Example B1: Spodoptera littoralis, sprayed cotton leaf discs; conditions: foliar, 72 h, read-out: control (at least one of mortality, anti-feedant effect, growth inhibition)
Description: Example B1: Spodoptera littoralis (Egyptian Cotton Leaf Worm)
Cotton leaf discs were placed on agar in 24-well microtiter plates and sprayed with aqueous test solutions prepared from 10′000 ppm DMSO stock solutions. After drying, the leaf discs were infested with five L1 larvae. The samples were assessed for mortality, anti-feedant effect, and growth inhibition in comparison to untreated samples 3 days after infestation. Control of Spodoptera littoralis by a test sample is when at least one of mortality, anti-feedant effect, and growth inhibition is higher than the untreated sample.

[3] = tested on: Myzus persicae (Green Peach Aphid); experiment: Example B6: Myzus persicae, roots of pea seedlings in test solution; conditions: 144 h, test rate of 24 ppm, pea seedling roots in test solution, 6 days
Description: Example B6: Myzus persicae (Green Peach Aphid)
Roots of pea seedlings infested with an aphid population of mixed ages were placed directly in the aqueous test solutions prepared from 10′000 DMSO stock solutions. The samples were assessed for mortality 6 days after placing seedlings in test solutions.

[4] = tested on: Myzus persicae (Green Peach Aphid); experiment: Example B5: Myzus persicae, sprayed sunflower leaf discs; conditions: foliar, 144 h, application rate of 200 ppm, mixed ages, 6 days after infestation
Description: Example B5: Myzus persicae (Green Peach Aphid)
(§2) Sunflower leaf discs were placed on agar in a 24-well microtiter plate and sprayed with aqueous test solutions prepared from 10′000 ppm DMSO stock solutions. After drying, the leaf discs were infested with an aphid population of mixed ages. The samples were assessed for mortality 6 days after infestation.

[5] = tested on: Diabrotica Balteata (Corn Root Worm); experiment: Example B4: Diabrotica balteata, sprayed maize sprouts; conditions: 96 h, application rate of 200 ppm, L2 larvae, 4 days after infestation, read-out: effect in at least one of the two categories (mortality or growth inhibition)
Description: Example B4: Diabrotica Balteata (Corn Root Worm)
as §1, with “Maize sprouts, placed on an agar layer in 24-well” for “24-well”, “plates” for “plates with artificial diet”, “spraying.” for “pipetting.”, “(6” for “(10”, “10” for “15”, “4” for “5”

[6] = tested on: Bemisia tabaci (Cotton White Fly); experiment: Example B7: Bemisia tabaci, sprayed cotton leaf discs; conditions: foliar, 144 h, application rate of 200 ppm, adult white flies, 6 days after incubation
Description: Example B7: Bemisia tabaci (Cotton White Fly)
Cotton leaf discs were placed on agar in 24-well microtiter plates and sprayed with aqueous test solutions prepared from 10′000 ppm DMSO stock solutions. After drying the leaf discs were infested with adult white flies. The samples were checked for mortality 6 days after incubation.

[7] = tested on: Euschistus heros (Neotropical Brown Stink Bug); experiment: Example B8: Euschistus heros, sprayed soybean leaf; conditions: 120 h, application rate of 200 ppm, N-2 nymphs, 5 days after infestation
Description: Example B8: Euschistus heros (Neotropical Brown Stink Bug)
Soybean leaf on agar in 24-well microtiter plates were sprayed with aqueous test solutions prepared from 10′000 ppm DMSO stock solutions. After drying the leaf were infested with N-2 nymphs. The samples were assessed for mortality 5 days after infestation.

[8] = tested on: Spodoptera littoralis (Egyptian Cotton Leaf Worm); experiment: Example B2: Spodoptera littoralis, systemic test via lettuce roots in agar; conditions: 144 h, test rate of 12.5 ppm, uptake via lettuce roots, 6 days after infestation, read-out: effect in at least one of the three categories (mortality, anti-feedancy, or growth inhibition)
From the text: Example B2: Spodoptera littoralis (Egyptian Cotton Leaf Worm)
Test compounds were applied by pipette from 10′000 ppm DMSO stock solutions into 24-well plates and mixed with agar. Lettuce seeds were placed on the agar and the multi well plate was closed by another plate which contains also agar. After 7 days the roots have absorbed the compound and the lettuce has grown into the lid plate. The lettuce leafs were now cut off into the lid plate. Spodoptera eggs were pipetted through a plastic stencil on a humid gel blotting paper and the plate closed with it. The samples were assessed for mortality, anti-feedant effect and growth inhibition in comparison to untreated samples 6 days after infestation.

[9] = tested on: Tetranychus urticae (Two-Spotted Spider Mite); experiment: Example B10: Tetranychus urticae, sprayed bean leaf discs; conditions: foliar, 192 h
Description: Example B10: Tetranychus urticae (Two-Spotted Spider Mite)
Bean leaf discs on agar in 24-well microtiter plates were sprayed with aqueous test solutions prepared from 10′000 ppm DMSO stock solutions. After drying the leaf discs were infested with a mite population of mixed ages. The samples were assessed for mortality on mixed population (mobile stages) 8 days after infestation.

[10] = tested on: Frankliniella occidentalis (Western Flower Thrips); experiment: Example B12: Frankliniella occidentalis, sprayed sunflower leaf discs; conditions: foliar, 168 h, application rate of 200 ppm, mixed ages, 7 days after infestation
Description: Example B12: Frankliniella occidentalis (Western Flower Thrips)
as §2, with “in” for “in a”, “plates” for “plate”, “[…]” for “10′000 ppm”, “drying” for “drying,”, “a Frankliniella” for “an aphid”, “7” for “6”

[11] = tested on: Thrips tabaci (Onion Thrips); experiment: Example B11: Thrips tabaci, sprayed sunflower leaf discs; conditions: foliar, 144 h, application rate of 200 ppm, mixed ages, 6 days after infestation
Description: Example B11: Thrips tabaci (Onion Thrips)
as §2, with “in” for “in a”, “plates” for “plate”, “drying” for “drying,”, “a thrips” for “an aphid”

[12] = application rate of 200 ppm, artificial diet, L2 larvae, 5 days after infestation
[13] = application rate of 200 ppm, cotton leaf discs, L1 larvae, 3 days after infestation

CCS(=O)(=O)c1cc(C#C[Si](C)(C)C)cnc1-c1nc2cc(C(F)(F)F)ncc2n1C [P1, 2-[5-ethylsulfonyl-6-[3-methyl-6-(trifluoromethyl)imidazo[4,5-c]pyridin-2-yl]-3-pyridyl]ethynyl-trimethyl-silane]
≥ 80%: percent effect (mortality or growth inhibition) at 200 ppm [1] | percent control (mortality, anti-feedant effect or growth inhibition) at 200 ppm [2]

C#Cc1cnc(-c2nc3cc(C(F)(F)F)ncc3n2C)c(S(=O)(=O)CC)c1 [P2, 2-(3-ethylsulfonyl-5-ethynyl-2-pyridyl)-3-methyl-6-(trifluoromethyl)imidazo[4,5-c]pyridine]
≥ 80%: percent effect (mortality or growth inhibition) at 200 ppm [1, 12] | percent control (mortality, anti-feedant effect or growth inhibition) at 200 ppm [2, 13]

C=Cc1cnc(-c2nc3cc(C(F)(F)F)ncc3n2C)c(S(=O)(=O)CC)c1 [P3, 2-(3-ethylsulfonyl-5-vinyl-2-pyridyl)-3-methyl-6-(trifluoromethyl)imidazo[4,5-c]pyridine]
≥ 80%: mortality at 24 ppm [3] | percent effect (mortality or growth inhibition) at 200 ppm [1, 12] | mortality at 200 ppm [4] | percent control (mortality, anti-feedant effect or growth inhibition) at 200 ppm [2, 13] | percent effect (mortality or growth inhibition) at 200 ppm [5]

CCS(=O)(=O)c1cc(C#Cc2ccc(Cl)cc2)cnc1-c1nc2cc(C(F)(F)F)ncc2n1C [P4]
≥ 80%: percent effect (mortality or growth inhibition) at 200 ppm [1, 12] | mortality at 200 ppm [4] | percent control (mortality, anti-feedant effect or growth inhibition) at 200 ppm [2, 13] | percent effect (mortality or growth inhibition) at 200 ppm [5]

CCS(=O)(=O)c1cc(/C=C/C2CCCCC2)cnc1-c1nc2cc(C(F)(F)F)ncc2n1C [P5]
≥ 80%: percent effect (mortality or growth inhibition) at 200 ppm [1, 12] | mortality at 200 ppm [6] | percent effect (mortality or growth inhibition) at 200 ppm [5]

C/C=C/c1cnc(-c2nc3cc(C(F)(F)F)ncc3n2C)c(S(=O)(=O)CC)c1 [P6]
≥ 80%: percent effect (mortality or growth inhibition) at 200 ppm [1, 12] | mortality at 200 ppm [4] | mortality at 200 ppm [7] | percent control (mortality, anti-feedant effect or growth inhibition) at 200 ppm [2, 13] | percent effect (mortality or growth inhibition) at 200 ppm [5] | percent control (mortality, anti-feedancy or growth inhibition) at 12.5 ppm [8]

CCS(=O)(=O)c1cc(C2CC2)cnc1-c1nc2cc(C(F)(F)F)ncc2n1C [P7, 2-(5-cyclopropyl-3-ethylsulfonyl-2-pyridyl)-3-methyl-6-(trifluoromethyl)imidazo[4,5-c]pyridine]
≥ 80%: mortality at 24 ppm [3] | percent effect (mortality or growth inhibition) at 200 ppm [1, 12] | mortality at 200 ppm [4] | mortality at 200 ppm [7] | percent control (mortality, anti-feedant effect or growth inhibition) at 200 ppm [2, 13] | percent effect (mortality or growth inhibition) at 200 ppm [5] | percent control (mortality, anti-feedancy or growth inhibition) at 12.5 ppm [8]

CCS(=O)(=O)c1cc(C#Cc2ccc(Cl)cc2)ccc1-c1nc2cc(C(F)(F)F)ncc2n1C [P8]
≥ 80%: percent effect (mortality or growth inhibition) at 200 ppm [1, 12] | mortality at 200 ppm [6] | mortality at 200 ppm [7] | percent control (mortality, anti-feedant effect or growth inhibition) at 200 ppm [2, 13] | percent effect (mortality or growth inhibition) at 200 ppm [5] | percent control (mortality, anti-feedancy or growth inhibition) at 12.5 ppm [8]

CCS(=O)(=O)c1cc(C#CC(F)(F)F)ccc1-c1nc2cc(C(F)(F)F)ncc2n1C [P9]
≥ 80%: mortality at 200 ppm [9] | percent effect (mortality or growth inhibition) at 200 ppm [5]

CCS(=O)(=O)c1cc(/C=C/c2ccc(C(F)(F)F)cc2)ccc1-c1nc2cc(C(F)(F)F)ncc2n1C [P10]
≥ 80%: percent effect (mortality or growth inhibition) at 200 ppm [1, 12] | mortality at 200 ppm [7] | percent control (mortality, anti-feedant effect or growth inhibition) at 200 ppm [2, 13] | percent effect (mortality or growth inhibition) at 200 ppm [5]

CCS(=O)(=O)c1cc(C=C(C)C)cnc1-c1nc2cc(C(F)(F)F)ncc2n1C [P11]
≥ 80%: percent effect (mortality or growth inhibition) at 200 ppm [1, 12] | mortality at 200 ppm [4] | mortality at 200 ppm [7] | percent control (mortality, anti-feedant effect or growth inhibition) at 200 ppm [2, 13] | percent effect (mortality or growth inhibition) at 200 ppm [5]

CCS(=O)(=O)c1cc(C2=CCC(C)(C)CC2)cnc1-c1nc2cc(C(F)(F)F)ncc2n1C [P12]
≥ 80%: percent effect (mortality or growth inhibition) at 200 ppm [1, 12] | mortality at 200 ppm [4] | mortality at 200 ppm [6] | mortality at 200 ppm [7]

C=Cc1ccc(-c2nc3cc(C(F)(F)F)ncc3n2C)c(S(=O)(=O)CC)c1 [P13]
≥ 80%: percent effect (mortality or growth inhibition) at 200 ppm [1, 12] | percent control (mortality, anti-feedant effect or growth inhibition) at 200 ppm [2, 13] | percent effect (mortality or growth inhibition) at 200 ppm [5] | percent control (mortality, anti-feedancy or growth inhibition) at 12.5 ppm [8]

C=C(c1ccc(-c2nc3cc(C(F)(F)F)ncc3n2C)c(S(=O)(=O)CC)c1)C(F)(F)F [P14]
≥ 80%: percent effect (mortality or growth inhibition) at 200 ppm [1, 12] | percent control (mortality, anti-feedant effect or growth inhibition) at 200 ppm [2, 13] | percent effect (mortality or growth inhibition) at 200 ppm [5]

CCS(=O)(=O)c1cc(C2(C#N)CC2)ccc1-c1nc2cc(C(F)(F)F)ncc2n1C [P15, 1-[3-ethylsulfonyl-4-[3-methyl-6-(trifluoromethyl)imidazo[4,5-c]pyridin-2-yl]phenyl]cyclopropanecarbonitrile]
≥ 80%: mortality at 24 ppm [3] | percent effect (mortality or growth inhibition) at 200 ppm [1, 12] | mortality at 200 ppm [4] | mortality at 200 ppm [10] | mortality at 200 ppm [6] | mortality at 200 ppm [9] | mortality at 200 ppm [7] | percent control (mortality, anti-feedant effect or growth inhibition) at 200 ppm [2, 13] | percent effect (mortality or growth inhibition) at 200 ppm [5] | percent control (mortality, anti-feedancy or growth inhibition) at 12.5 ppm [8]

CCS(=O)(=O)c1cc(C2(C#N)CC2)cnc1-c1nc2cc(C(F)(F)F)ncc2n1C [P16]
≥ 80%: mortality at 24 ppm [3] | percent effect (mortality or growth inhibition) at 200 ppm [1, 12] | mortality at 200 ppm [11] | mortality at 200 ppm [4] | mortality at 200 ppm [10] | mortality at 200 ppm [6] | mortality at 200 ppm [7] | percent control (mortality, anti-feedant effect or growth inhibition) at 200 ppm [2, 13] | percent effect (mortality or growth inhibition) at 200 ppm [5] | percent control (mortality, anti-feedancy or growth inhibition) at 12.5 ppm [8]

C=C(c1cnc(-c2nc3cc(C(F)(F)F)ncc3n2C)c(S(=O)(=O)CC)c1)C(F)(F)F [P17, 2-[3-ethylsulfonyl-5-[1-(trifluoromethyl)vinyl]-2-pyridyl]-3-methyl-6-(trifluoromethyl)imidazo[4,5-c]pyridine]
≥ 80%: percent effect (mortality or growth inhibition) at 200 ppm [5]
